Tests used:
[1] = system: mPCE subcutaneous isografts; experiment: mPCE subcutaneous prostate isografts; format: in vivo; settings: C57BL/6 mice
Experimental: The ability of starvation-inducing sphingolipid-like drugs to affect the growth of slow growing or autochthonous neoplasms was also evaluated. In C57BL/6 mice bearing mPCE subcutaneous isografts, 60 mg/kg SH-BC-893 was given daily by gavage and slowed tumor growth by 60% similar to results with SW620 xenografts dosed with 20 mg/kg i.p. (FIGS. 53G-I and 65I). At 120 mg/kg, SH-BC-893 inhibited prostate tumor growth by more than 90% (FIG. 65I). […] Akt activity was slightly elevated by SH-BC-893 consistent with loss of TORC1-mediated negative feedback. Thus, sphingolipid-like compounds, such as SH-BC-893, are effective against neoplasms with distinct molecular defects and metabolic characteristics.
In vivo studies. Experiments conducted in mice were performed in accordance with the Institutional Animal Care and Use Committee of University of California, Irvine following a power analysis conducted in consultation with the Biostatistics Shared Resource of Chao Family Comprehensive Cancer Center at UCI. […] Tumor volume was calculated using the formula, volume (mm^3)=length [mm]×(width [mm])^2×0.52; BLI was measured using an IVIS imaging system (Xenogen). […] Blood chemistry was analyzed by IDEXX BioResearch and complete blood counts were performed using a Hemavet hematology system.

[2] = system: non-transformed and cancer cells; experiment: Cytosolic vacuolation by SH-BC-893; format: cell-based; settings: both non-transformed and cancer cells
Description: Certain embodiments of the invention are directed to azacyclic constrained sphingolipid-like molecules to inhibit macropinocytosis and autophagy, consistent with the bioenergetic mechanism. This aspect of the mechanism was unexpected because it was initially believed in that these molecules would only reduce nutrient transporter surface expression. However, considering that Ras activation increases macropinocytosis and autophagy, and the finding that SH-BC-893 was very effective against neoplastic cells with activated Ras led to the hypothesis that azacyclic constrained sphingolipid-like molecules might also affect macropinocytosis and autophagy pathways. […]
Light Microscopy: Brightfield and epifluorescence microscopy were conducted using a Nikon TE2000-S fluorescence microscope; confocal microscopy was performed on a Zeiss LSM780 confocal microscope or Nikon Eclipse Ti spinning disk confocal microscope. […] Co-localization was determined using JACoP plugin in ImageJ software. Macropinocytosis was measured after 16 h incubation in serum-free DMEM. p53−/−; LSL-K-RasG12D MEFs before (LSL) or after (KRasG12D) introduction of Cre were serum starved for 16 h and then treated with macropinocytosis inhibitor 5-(N-ethyl-N-isopropyl) amiloride (EIPA, 75 μM) for 1 h or SH-BC-893 for 6 h. […]

[3] = system: PI(3,5)P2 levels in HeLa cells; experiment: Measurement of PI(3,5)P2 by HPLC; format: cell-based
Experimental: In certain embodiments of the invention, sphingolipid-like molecules mis-localize PIKfyve preventing its association with TRMPL1 and inducing vacuolation, instead of inhibiting PIKfyve kinase activity. While PIKfyve localized to the limiting membrane of YM201636-induced vacuoles as expected, PIKfyve was present in clumps between vacuoles in FTY720-treated cells (FIGS. 57C and 56F).
Measurement of PI(3,5)P2 by HPLC. HeLa cells were rinsed twice with PBS and incubated in for 48 h in inositol labeling medium (inositol-free DMEM containing 5 μg/ml transferrin, 5 μg/ml insulin, 10% dialyzed FCS, 20 mM HEPES, 2 mM L-glutamine), and 10 μCi/ml myo-[2-^3H]inositol. Cells were lysed with 4.5% perchloric acid, scraped, and centrifuged at 14,000×g for 10 min at 4° C. Cell pellets were rinsed with 100 mM EDTA, centrifuged again, and re-suspended in 50 μl of water. To deacylate lipids, 1 ml methanol/40% methylamine/butanol (45.7% methanol, 10.7% methylamine, 11.4% butanol) were added and then the mixture was transferred to a glass vial and incubated at 55° C. for 1 h. After cooling to room temperature, samples were vacuum dried and re-suspended in 0.5 ml water. […] The aqueous phase was vacuum dried and re-suspended in 75 μl water and 50 μl of each sample was analyzed by HPLC. PI(3,5)P2 levels were expressed as a percentage of total phosphatidylinositol.

| Compound | slowing of tumor growth ([1]; 60 mg/kg daily by gavage) [%] | inhibition of prostate tumor growth ([1]; 120 mg/kg) | cytosolic vacuolation [2] | PI(3,5)P2 levels [3] |
| --- | --- | --- | --- | --- |
| CCCCCCCCc1ccc([C@H]2CCN[C@@H]2CO)cc1.Cl [Compound 5, (2S,3R)-2-(hydroxymethyl)-3-(4-octylphenyl)Pyrrolidinium chloride] | 60 | more than 90% | induced equally striking cytosolic vacuolation |  |
| CCCCCCCCc1ccc(CCC(N)(CO)CO)cc1.Cl [FTY720, 2-Amino-2-[2-(4-octylphenyl)ethyl]propane 1,3-diol hydrochloride, reference compound] |  |  |  | did not inhibit PIKfyve kinase activity or reduce PI(3,5)P2 levels |
